{"source": "patent US4663309A", "about": "“Novel peptide hormones with calcitonin-like activity” (University Patents, Inc., priority 1985, dated 1987)", "system": "male Sprague-Dawley rats", "assay": "In vivo relative hypocalcemic potency in rats (Example 10)", "parameters": "species or system rat", "protocol": "The relative hypocalcemic potency of MCT-II and SCT-I was assessed by giving 3 to 4 week-old male Sprague-Dawley rats (Charles River Breeding Laboratories) subcutaneous injections of hormone in 0.9% saline containing 0.1% BSA. In each experiment, 25 rats were divided into 5 groups of 5 rats each and each group given either saline alone or saline with hormone. Blood samples were obtained by cardiac puncture from the ether-anesthetized rats 1 hr after injection. 200 μl of the blood plasma was diluted in 5 ml of 5% trichloroacetic acid-1000 ppm lithium (Chem-Chek Consulting Inc., South Boundbrook, NJ) and centrifuged before determining the calcium concentration by plasma emission spectrometry (Beckman Spectra Span IV™, Beckman Instruments). Calcium standards were also purchased from Chem-Chek Consulting Inc.", "note": "Entries after “also recorded” stand apart in the source; their conditions may differ. Bridge positions count the residues as written; N and C are the ends. Peptide text beside a SMILES is read from it.", "data": [{"smiles": "CC(C)C[C@H](NC(=O)[C@H](CCCCN)NC(=O)[C@H](CCC(N)=O)NC(=O)[C@H](CC(C)C)NC(=O)[C@H](CCC(N)=O)NC(=O)[C@H](CCC(N)=O)NC(=O)[C@H](CC(C)C)NC(=O)[C@H](CC(C)C)NC(=O)[C@@H]1CSSC[C@H](N)C(=O)N[C@@H](CO)C(=O)N[C@@H](CC(N)=O)C(=O)N[C@@H](CC(C)C)C(=O)N[C@@H](CO)C(=O)N[C@@H]([C@@H](C)O)C(=O)N1)C(=O)N[C@@H](CC(C)C)C(=O)N[C@@H](CCC(N)=O)C(=O)N[C@@H](CCCCN)C(=O)N[C@@H](CC(C)C)C(=O)N[C@@H](CCCCN)C(=O)N[C@@H](CCC(N)=O)C(=O)N[C@@H](Cc1ccc(O)cc1)C(=O)N1CCC[C@H]1C(=O)N[C@@H](CCCNC(=N)N)C(=O)N[C@H](C(=O)N[C@@H](CC(N)=O)C(=O)N[C@H](C(=O)NCC(=O)N[C@@H](CO)C(=O)NCC(=O)N[C@H](C(=O)N1CCC[C@H]1C(N)=O)[C@@H](C)O)[C@@H](C)O)[C@@H](C)O", "note": "[MCT-II] (H-CSNLSTCLLQQLQKLLQKLKQYPRTNTGSGTP-NH2; disulfide 1-7; N-terminus assumed)", "values": [{"measurement": "Activity relative to MCT-I", "setting": "in all assays used to compare them", "value": 10, "unit": "times"}, {"measurement": "Hypocalcemic potency relative to SCT-I", "setting": "subcutaneous, 0.1 to 100 ng/100 g body weight, 1 hr after injection, b99: all assays used to compare them", "value": "indistinguishable from that of our preparation of SCT-I; also recorded: as active as SCT-I"}]}]}
